Measured values taken from patent publication US20260068882A1, “ARTHROPOD CONTROLLING COMPOSITION” (Firmenich SA, priority 2019, published 2026).
Like-named read-outs stand apart in the source and are kept apart here.

Assays:
Aedes aegypti = assay: In vitro Warm Body assay, mosquitoes landing on treated warm body; type: in vivo
Description: The arthropod controlling effect according to the present invention is determined on mosquitoes using an adapted Warm Body assay as defined in Kröber T, Kessler S, Frei J, Bourquin M, Guerin P M. An in vitro assay for testing mosquito controlling compounds employing a warm body and carbon dioxide as a behavioral activator. J Am Mosq Control Assoc. 2010; 26:381-386.
The controlling effect according to the present invention is determined by testing the Warm Body assay against the yellow fever mosquito, Aedes aegypti Rockefeller strain. […] Observations of controlling efficacy were made on host-seeking females of uniform age, 5 to 10 days old selected as mentioned in the publication mentioned hereinabove. Tested hungry females had access to 10% sugar solution but were not blood-fed.
The published protocol has been adapted in not manually counting the landing mosquitoes but automatically using an automatic counting software, the switch from Anopheles gambiae to A. aegypti led to a decrease of mosquitoes' number placed in the tested cage due to the size difference (i.e. 30 mosquitoes instead of 50) and to an increase of lighting as A. aegypti is a diurnal mosquitoes (i.e. 150 lux instead of 4 lux).
The controlling effect according to the present invention is determined by testing the Warm Body assay against the yellow fever mosquito, A. aegypti Rockefeller strain. […] Observations of controlling efficacy were made on host-seeking females of uniform age, 5 to 10 days old selected as mentioned in the publication mentioned hereinabove. Tested hungry females had access to 10% sugar solution but were not blood-fed.
The controlling effect according to the present invention was assessed using an adapted Warm Body assay as defined in Kröber T, Kessler S, Frei J, Bourquin M, Guerin P M. An in vitro assay for testing mosquito controlling compounds employing a warm body and carbon dioxide as a behavioral activator. J Am Mosq Control Assoc. 2010; 26:381-386.
The published protocol has been adapted in not manually counting the landing mosquitoes but automatically using an automatic counting software, the switch from Anopheles gambiae to Aedes aegypti led to a decrease of mosquitoes' number placed in the tested cage due to the size difference (i.e. 30 mosquitoes instead of 50) and to an increase of lighting as Aedes aegypti is a diurnal mosquitoes (i.e. 150 lux instead of 4 lux).
In this in-vitro assay the number of A. aegypti landing on a warm body treated with the tested stimuli was measured in order to assess the repellency effect. Three replicates were carried on the three different doses: 0.0016%, 0.04% and 1% in ethanol, using 25 A. aegypti 10-12 days old females per cage.
In this in-vitro assay, the number of Aedes aegypti landing on a warm body treated with the tested stimuli was measured in order to assess the repellency effect. Three replicates were carried on the three different doses: 0.0016%, 0.04% and 1% in ethanol.
In this in-vitro assay, the number of Aedes aegypti landing on a warm body treated with the tested stimuli was measured in order to assess the repellency effect. One replicate was carried at different doses ranging from 0.0016% up to 1% in ethanol.

Ixodes ricinus = assay: In vitro Warm Plate Assay for ticks; type: in vivo; settings: for pest or weed control at 0.0053 %: 0.0053% in ethanol (Table 12); for pest or weed control at 0.0119 %: 0.0119% in ethanol (Table 12); for pest or weed control at 0.0178 %: 0.0178% in ethanol (Table 12); for pest or weed control at 0.0267 %: 0.0267% in ethanol (Table 12); for pest or weed control at 0.0598 %: 0.0598% in ethanol (Table 12); for pest or weed control at 0.089 %: 0.089% in ethanol (Table 12); for pest or weed control at 0.447 %: 0.447% in ethanol (Table 12)
Description: Repellent efficacy of the different compounds was assessed against the sheep tick, Ixodes ricinus. I. ricinus is one of the recommended model organisms mentioned by the Guidance on the European Biological Products Regulation [Vol II, Efficacy-Assessment & Evaluation (Parts B+C), v. 3.0, April 2018]. Observations of repellent efficacy were made on last stage nymphs.
The repellent efficacy was assessed using the protocol of the in-vitro Warm Plate Assay as defined in Kröber T, Bourquin M, Guerin P M. A standardized in vivo and in vitro test method for evaluating tick repellents. Pesticide Biochemistry and Physiology. 2013; 107 (2): 160-168.].
The mean±SD number of ticks Ixodes ricinus walking down (affected), falling (affected) or walking-up (non affected) from the warm plate treated with ethanol, N,N-diethyl-3-methylbenzamide, (2,5-dimethyl-2,3-dihydro-1H-inden-2yl)methanol (Ingredient 2) or (2,4,6-trimethyl-2,3-dihydro-1H-inden-2-yl)methanol (Ingredient 1) diluted in ethanol at 0.4 mg/ml and 10 mg/mL was assessed on n groups of 12 ticks (n=2-5).
In this in-vitro assay, the percentage of ticks Ixodes ricinus affected by the stimulus loaded on the warm plate was measured in order to assess the repellency effect. Twelve ticks were assessed per concentrations that goes from 0.0016% up to 1% in ethanol.
Using the same in-vitro setup, the effect on ticks behavior (n≥12) of different stimuli diluted in ethanol at 20% (w/w) was assessed overtime.

[1] = Ixodes ricinus, 0.0016% in ethanol (Table 12), read-out: percentage of ticks affected on the Warm Plate
[2] = Ixodes ricinus, read-out: percentage of ticks affected on the Warm Plate
[3] = Ixodes ricinus, 0.008% in ethanol (Table 12), read-out: percentage of ticks affected on the Warm Plate
[4] = Ixodes ricinus, 0.04% in ethanol (Table 12), read-out: percentage of ticks affected on the Warm Plate
[5] = Ixodes ricinus, 0.2% in ethanol (Table 12), read-out: percentage of ticks affected on the Warm Plate
[6] = Ixodes ricinus, 1% in ethanol (Table 12), read-out: percentage of ticks affected on the Warm Plate
[7] = Aedes aegypti, read-out: decrease of landings
[8] = Ixodes ricinus, 0.04% (Table 10), read-out: percentage of ticks affected on the Warm Plate
[9] = Ixodes ricinus, 0.2% (Table 10), read-out: percentage of ticks affected on the Warm Plate
[10] = Ixodes ricinus, 1% (Table 10), read-out: percentage of ticks affected on the Warm Plate
[11] = Ixodes ricinus, 0.0016% (Table 11), read-out: percentage of ticks affected on the Warm Plate
[12] = Ixodes ricinus, 0.04% (Table 11), read-out: percentage of ticks affected on the Warm Plate
[13] = Ixodes ricinus, 1% (Table 11), read-out: percentage of ticks affected on the Warm Plate

CC1CCC(C(C)(C)O)C(O)C1 (centres unmarked) [PMD, 2-(2-hydroxypropan-2-yl)-5-methylcyclohexan-1-ol, reference compound]
reduction of landing (Aedes aegypti; 0.0016% (Table 7)): 11% | number of mosquitoes landed on the Warm Body (Aedes aegypti; 0.0016% in ethanol (Table 7, one replicate)): 58 | number of mosquitoes landed on the Warm Body (Aedes aegypti; 0.008% in ethanol (Table 7, one replicate)): 40 | number of mosquitoes landed on the Warm Body (Aedes aegypti; 0.0119% in ethanol (Table 7, one replicate)): 36 | number of mosquitoes landed on the Warm Body (Aedes aegypti; 0.04% in ethanol (Table 7, one replicate)): 8 | number of mosquitoes landed on the Warm Body (Aedes aegypti; 0.0598% in ethanol (Table 7, one replicate)): 1 | number of mosquitoes landed on the Warm Body (Aedes aegypti; 0.2% in ethanol (Table 7, one replicate)): 1 | number of mosquitoes landed on the Warm Body (Aedes aegypti; 1% in ethanol (Table 7, one replicate)): 0 | percentage of ticks affected overtime (Ixodes ricinus; 20% (w/w) in ethanol, 0.25 h post-application): 42% | percentage of ticks affected overtime (Ixodes ricinus; 20% (w/w) in ethanol, 0.5 h post-application): 42% | percentage of ticks affected overtime (Ixodes ricinus; 20% (w/w) in ethanol, 1 h post-application): 83% | percentage of ticks affected overtime (Ixodes ricinus; 20% (w/w) in ethanol, 2 h post-application): 50% | percentage of ticks affected overtime (Ixodes ricinus; 20% (w/w) in ethanol, 4 h post-application): 8% | percentage of ticks affected overtime (Ixodes ricinus; 20% (w/w) in ethanol, 6 h post-application): 17% | ticks' repellency overtime (in words) (Ixodes ricinus; 20% (w/w) in ethanol, Table 14): not efficient during these first time points | pest or weed control at 0.0016 % (Ixodes ricinus; [1]): 0% | pest or weed control at 0.0053 % (Ixodes ricinus; [2]): 12% | pest or weed control at 0.008 % (Ixodes ricinus; [3]): 4% | pest or weed control at 0.0119 % (Ixodes ricinus; [2]): 4% | pest or weed control at 0.0178 % (Ixodes ricinus; [2]): 4% | pest or weed control at 0.0267 % (Ixodes ricinus; [2]): 0% | pest or weed control at 0.04 % (Ixodes ricinus; [4]): 12% | pest or weed control at 0.0598 % (Ixodes ricinus; [2]): 19% | pest or weed control at 0.089 % (Ixodes ricinus; [2]): 42% | pest or weed control at 0.2 % (Ixodes ricinus; [5]): 84% | pest or weed control at 0.447 % (Ixodes ricinus; [2]): 96% | pest or weed control at 1 % (Ixodes ricinus; [6]): 96% | ticks affected (Ixodes ricinus; dose of 0.598%): 19%

CC(C)c1ccc2c(c1)CC(C)(CO)C2 (racemic) [5-isopropyl-2-methyl-2-indanmethanol]
pest or weed control at 0.0016 % (Aedes aegypti; [7]): 4 to 29% | pest or weed control at 0.00032 % (Ixodes ricinus; Ixodes ricinus, 0.00032% (Table 10), read-out: percentage of ticks affected on the Warm Plate): 0% | pest or weed control at 0.0016 % (Ixodes ricinus; Ixodes ricinus, 0.0016% (Table 10), read-out: percentage of ticks affected on the Warm Plate): 21% | pest or weed control at 0.008 % (Ixodes ricinus; Ixodes ricinus, 0.008% (Table 10), read-out: percentage of ticks affected on the Warm Plate): 0% | pest or weed control at 0.04 % (Ixodes ricinus; [8]): 71% | pest or weed control at 0.2 % (Ixodes ricinus; [9]): 87% | pest or weed control at 1 % (Ixodes ricinus; [10]): 92% | concentration at which the level of 85% of ticks affected is reached (Ixodes ricinus; Tables 10 and 12): 0.2%

Cc1ccc2c(c1)CCC(C)(CO)C2 (racemic) [(+−)-(2,6-dimethyl-1,2,3,4-tetrahydro-2-naphthalenyl)methanol]
number of mosquitoes landed on the Warm Body (Aedes aegypti; 0.0016% in ethanol (Table 6)): 57 | number of mosquitoes landed on the Warm Body (Aedes aegypti; 0.04% in ethanol (Table 6)): 65 | number of mosquitoes landed on the Warm Body (Aedes aegypti; 1% in ethanol (Table 6)): 3 | pest or weed control at 0.04 % (Ixodes ricinus; [8]): 8% | pest or weed control at 0.2 % (Ixodes ricinus; [9]): 71% | pest or weed control at 1 % (Ixodes ricinus; [10]): 100%

CC(=O)C1(C)Cc2ccc(C)cc2C1 (racemic) [(+−)-1-(2,5-dimethyl-2,3-dihydro-1H-inden-2-yl)ethanone]
number of mosquitoes landed on the Warm Body (Aedes aegypti; 0.0016% in ethanol (Table 6)): 119 | number of mosquitoes landed on the Warm Body (Aedes aegypti; 0.04% in ethanol (Table 6)): 15 | number of mosquitoes landed on the Warm Body (Aedes aegypti; 1% in ethanol (Table 6)): 6 | pest or weed control at 0.04 % (Ixodes ricinus; [8]): 0% | pest or weed control at 0.2 % (Ixodes ricinus; [9]): 42% | pest or weed control at 1 % (Ixodes ricinus; [10]): 100%

CC(=O)C1(C)Cc2ccc(C)c(C)c2C1 (racemic) [(+−)-1-(2,4,5-trimethyl-2,3-dihydro-1H-inden-2-yl)ethanone]
number of mosquitoes landed on the Warm Body (Aedes aegypti; 0.0016% in ethanol (Table 6)): 31 | number of mosquitoes landed on the Warm Body (Aedes aegypti; 0.04% in ethanol (Table 6)): 5 | number of mosquitoes landed on the Warm Body (Aedes aegypti; 1% in ethanol (Table 6)): 18 | pest or weed control at 0.04 % (Ixodes ricinus; [8]): 0% | pest or weed control at 0.2 % (Ixodes ricinus; [9]): 38% | pest or weed control at 1 % (Ixodes ricinus; [10]): 92%

COCC1(C)Cc2ccc(C)cc2C1 (centres unmarked) [(2,5-dimethyl-2,3-dihydro-1H-inden-2-yl)methyl methyl ether]
decrease of the number of landing (Aedes aegypti; 1% in ethanol (FIG. 9)): 86% | pest or weed control at 0.0016 % (Aedes aegypti; [7]): 4 to 29% | pest or weed control at 0.0016 % (Ixodes ricinus; [11]): 0% | pest or weed control at 0.04 % (Ixodes ricinus; [12]): 17% | pest or weed control at 1 % (Ixodes ricinus; [13]): 79%

Cc1cc(C)c2c(c1)CC(C)(CO)C2 (racemic) [ingredient #1, (2,4,6-trimethyl-2,3-dihydro-1H-inden-2-yl)methanol]
mosquitoes landing on the warm body (Aedes aegypti; 1% in ethanol (FIG. 8)): no mosquito landed | pest or weed control at 0.04 % (Aedes aegypti; [7]): 88% | MEAN % affected (ticks) (Ixodes ricinus; 0.4 mg/mL in ethanol (Table 5)): 67% | MEAN % affected (ticks) (Ixodes ricinus; 10 mg/mL in ethanol (Table 5)): 100% | ticks non-affected over 12 (in words) (Ixodes ricinus; 0.04%): three and five ticks over 12 being non-affected | ticks affected / not affected over 12 (in words) (Ixodes ricinus; 1%): all the ticks being affected | pest or weed control at 0.0016 % (Ixodes ricinus; [11]): 20% | pest or weed control at 0.0016 % (Ixodes ricinus; [1]): 20% | pest or weed control at 0.0053 % (Ixodes ricinus; [2]): 7% | pest or weed control at 0.008 % (Ixodes ricinus; [3]): 8% | pest or weed control at 0.0119 % (Ixodes ricinus; [2]): 23% | pest or weed control at 0.0178 % (Ixodes ricinus; [2]): 0% | pest or weed control at 0.0267 % (Ixodes ricinus; [2]): 7% | pest or weed control at 0.04 % (Ixodes ricinus; [12]): 57% | pest or weed control at 0.04 % (Ixodes ricinus; [4]): 57% | pest or weed control at 0.0598 % (Ixodes ricinus; [2]): 13% | pest or weed control at 0.089 % (Ixodes ricinus; [2]): 41% | pest or weed control at 0.2 % (Ixodes ricinus; [5]): 85% | pest or weed control at 0.447 % (Ixodes ricinus; [2]): 92% | pest or weed control at 1 % (Ixodes ricinus; [13]): 96% | pest or weed control at 1 % (Ixodes ricinus; [6]): 96%
